Results reported in patent US9738600B2, “ROR gamma (RORγ) modulators” (LEAD PHARMA CEL MODELS IP B.V., priority 2013, dated 2017).

Biological target: T1, RORγ (Homo sapiens, UniProt P51449)
T1 sequence (P51449 269-508 limits assumed): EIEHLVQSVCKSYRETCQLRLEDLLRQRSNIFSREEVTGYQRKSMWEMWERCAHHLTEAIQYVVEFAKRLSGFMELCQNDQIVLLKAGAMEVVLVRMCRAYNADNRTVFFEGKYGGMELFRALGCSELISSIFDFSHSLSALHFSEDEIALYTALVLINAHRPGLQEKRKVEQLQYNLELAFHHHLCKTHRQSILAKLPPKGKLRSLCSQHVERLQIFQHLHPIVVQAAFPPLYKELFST
Assay: RORγ GAL4 reporter gene assay
Conditions: mean pIC50, inhibition of RORγ (GAL4-RORγ-LBD) in 293FT cells, luciferase readout, overnight incubation

| SMILES | IC50 |
| --- | --- |
| CCCCC(O)(c1ccc(NC(=O)Cc2ccc(S(=O)(=O)CC3CC3)cc2)cc1)C(F)(F)F (stereo not drawn) [Example 64, 2-(4-((cyclopropylmethyl)sulfonyl)phenyl)-N-(4-(1,1,1-trifluoro-2-hydroxyhexan-2-yl)phenyl)acetamide] | ≤ 10 nM |
| CCCC(O)(c1ccc(NC(=O)Cc2ccc(S(=O)(=O)NC3CC3)cc2)cc1)C(F)(F)F (stereo not drawn) [Example 80, 2-(4-(N-cyclopropylsulfamoyl)phenyl)-N-(4-(1,1,1-trifluoro-2-hydroxypentan-2-yl)phenyl)acetamide] | ≤ 1000 nM |
| CCS(=O)(=O)c1ccc(CC(=O)Nc2ccc(C(O)(C(F)(F)F)C(F)(F)F)cc2)cc1F [Example 42, 2-(4-(ethylsulfonyl)-3-fluorophenyl)-N-(4-(1,1,1,3,3,3-hexafluoro-2-hydroxypropan-2-yl)phenyl)acetamide] | ≤ 1000 nM |
| O=C(Cc1ccc(S(=O)(=O)CC2CC2)cc1)Nc1ccc(C(O)(C(F)(F)F)C(F)(F)F)c(Cl)c1 [Example 62, N-(3-chloro-4-(1,1,1,3,3,3-hexafluoro-2-hydroxypropan-2-yl)phenyl)-2-(4-((cyclopropylmethyl)sulfonyl)phenyl)acetamide] | ≤ 100 nM |
| CCS(=O)(=O)c1ccc(CC(=O)Nc2ccc(C(O)(c3ccccc3)C(F)(F)F)cc2)cc1 (stereo not drawn) [Example 97, 2-(4-(ethylsulfonyl)phenyl)-N-(4-(2,2,2-trifluoro-1-hydroxy-1-phenylethyl)phenyl)acetamide] | ≤ 1000 nM |
| COc1cc(NC(=O)Cc2ccc(S(=O)(=O)CC3CC3)cc2)ccc1C(O)(C(F)(F)F)C(F)(F)F [Example 56, 2-(4-((cyclopropylmethyl)sulfonyl)phenyl)-N-(4-(1,1,1,3,3,3-hexafluoro-2-hydroxypropan-2-yl)-3-methoxyphenyl)acetamide] | ≤ 1000 nM |
| O=C(Cc1ccc(S(=O)(=O)NC2CC2)cc1)Nc1ccc(C(O)(C2CCCC2)C(F)(F)F)cc1 (stereo not drawn) [Example 90, N-(4-(1-cyclopentyl-2,2,2-trifluoro-1-hydroxyethyl)phenyl)-2-(4-(N-cyclopropylsulfamoyl)phenyl)acetamide] | ≤ 1000 nM |
| CC(C)(C)CC(O)(c1ccc(NC(=O)Cc2ccc(S(=O)(=O)CC3CC3)cc2)cc1)C(F)(F)F (stereo not drawn) [Example 82, 2-(4-((cyclopropylmethyl)sulfonyl)phenyl)-N-(4-(1,1,1-trifluoro-2-hydroxy-4,4-dimethylpentan-2-yl)phenyl)acetamide] | ≤ 10 nM |
| CC(C)CC(O)(c1ccc(NC(=O)Cc2ccc(S(=O)(=O)NC3CC3)cc2)cc1)C(F)(F)F (stereo not drawn) [Example 76, 2-(4-(N-cyclopropylsulfamoyl)phenyl)-N-(4-(1,1,1-trifluoro-2-hydroxy-4-methylpentan-2-yl)phenyl)acetamide] | ≤ 100 nM |
| O=C(Cc1ccc(S(=O)(=O)CC2CC2)cc1)Nc1ccc(C(O)(c2ccccc2)C(F)(F)F)cc1 (stereo not drawn) [Example 88, 2-(4-((cyclopropylmethyl)sulfonyl)phenyl)-N-(4-(2,2,2-trifluoro-1-hydroxy-1-phenylethyl)phenyl)acetamide] | ≤ 100 nM |
| O=C(Cc1ccc(S(=O)(=O)CC2CC2)cc1)Nc1ccc(C(O)(C(F)(F)F)C(F)(F)F)cc1Cl [Example 98, N-(2-chloro-4-(1,1,1,3,3,3-hexafluoro-2-hydroxypropan-2-yl)phenyl)-2-(4-((cyclopropylmethyl)sulfonyl)phenyl)acetamide] | ≤ 100 nM |
| CCS(=O)(=O)c1ccc(CC(=O)Nc2ccc(C(O)(C(C)C)C(F)(F)F)cc2)cc1 (stereo not drawn) [Example 65, 2-(4-(ethylsulfonyl)phenyl)-N-(4-(1,1,1-trifluoro-2-hydroxy-3-methylbutan-2-yl)phenyl)acetamide] | ≤ 1000 nM |
| CC(C)C(O)(c1ccc(NC(=O)Cc2ccc(S(=O)(=O)NC3CC3)cc2)cc1)C(F)(F)F (stereo not drawn) [Example 95, 2-(4-(N-cyclopropylsulfamoyl)phenyl)-N-(4-(1,1,1-trifluoro-2-hydroxy-3-methylbutan-2-yl)phenyl)acetamide] | ≤ 1000 nM |
| O=C(Cc1ccc(S(=O)(=O)NC2CC2)cc1)Nc1ccc(C(O)(CC2CCCC2)C(F)(F)F)cc1 (stereo not drawn) [Example 99, N-(4-(3-cyclopentyl-1,1,1-trifluoro-2-hydroxypropan-2-yl)phenyl)-2-(4-(N-cyclopropylsulfamoyl)phenyl)acetamide] | ≤ 1000 nM |
| CCS(=O)(=O)c1ccc(CC(=O)Nc2ccc(C(OCc3ccccc3)(C(F)(F)F)C(F)(F)F)cc2)cc1 [Example 50, N-(4-(2-(benzyloxy)-1,1,1,3,3,3-hexafluoropropan-2-yl)phenyl)-2-(4-(ethylsulfonyl)phenyl)acetamide] | ≤ 1000 nM |
| CC(C)(C)CC(O)(c1ccc(NC(=O)Cc2ccc(S(=O)(=O)NC3CC3)cc2)cc1)C(F)(F)F (stereo not drawn) [Example 94, 2-(4-(N-cyclopropylsulfamoyl)phenyl)-N-(4-(1,1,1-trifluoro-2-hydroxy-4,4-dimethylpentan-2-yl)phenyl)acetamide] | ≤ 100 nM |
| CCS(=O)(=O)c1ccc(CC(=O)Nc2cc(Cl)c(C(O)(C(F)(F)F)C(F)(F)F)cc2OC)cc1 [Example 22, N-(5-chloro-4-(1,1,1,3,3,3-hexafluoro-2-hydroxypropan-2-yl)-2-methoxyphenyl)-2-(4-(ethylsulfonyl)phenyl)acetamide] | ≤ 1000 nM |
| CC(C)OC(c1ccc(NC(=O)Cc2ccc(S(=O)(=O)CC3CC3)cc2)cc1)(C(F)(F)F)C(F)(F)F [Example 51, 2-(4-((cyclopropylmethyl)sulfonyl)phenyl)-N-(4-(1,1,1,3,3,3-hexafluoro-2-isopropoxypropan-2-yl)phenyl)acetamide] | ≤ 100 nM |
| O=C(Cc1ccc(S(=O)(=O)CC2CC2)cc1)Nc1ccc(C(OCc2ccccc2)(C(F)(F)F)C(F)(F)F)cc1 [Example 59, N-(4-(2-(benzyloxy)-1,1,1,3,3,3-hexafluoropropan-2-yl)phenyl)-2-(4-((cyclopropylmethyl)sulfonyl)phenyl)acetamide] | ≤ 100 nM |
| Cc1cc(C(O)(C(F)(F)F)C(F)(F)F)ccc1NC(=O)Cc1ccc(S(=O)(=O)CC2CC2)cc1 [Example 43, 2-(4-((cyclopropylmethyl)sulfonyl)phenyl)-N-(4-(1,1,1,3,3,3-hexafluoro-2-hydroxypropan-2-yl)-2-methylphenyl)acetamide] | ≤ 100 nM |
| O=C(Cc1ccc(S(=O)(=O)CC2CC2)cc1)Nc1ccc(C(O)C(F)(F)F)cc1 (stereo not drawn) [Example 70, 2-(4-((cyclopropylmethyl)sulfonyl)phenyl)-N-(4-(2,2,2-trifluoro-1-hydroxyethyl)phenyl)acetamide] | ≤ 1000 nM |
| CCS(=O)(=O)c1ccc(C(C)C(=O)Nc2ccc(C(O)(C(F)(F)F)C(F)(F)F)cc2)cc1 (stereo not drawn) [Example 5, 2-(4-(ethylsulfonyl)phenyl)-N-(4-(1,1,1,3,3,3-hexafluoro-2-hydroxypropan-2-yl)phenyl)propanamide] | ≤ 1000 nM |
| O=C(Cc1ccc(S(=O)(=O)CC2CC2)cc1)Nc1ccc(C(O)(C(F)(F)F)C(F)(F)F)cc1F [Example 46, 2-(4-((cyclopropylmethyl)sulfonyl)phenyl)-N-(2-fluoro-4-(1,1,1,3,3,3-hexafluoro-2-hydroxypropan-2-yl)phenyl)acetamide] | ≤ 10 nM |
| CCS(=O)(=O)c1ccc(CC(=O)Nc2ccc(C(O)(CC(C)(C)C)C(F)(F)F)cc2)cc1 (stereo not drawn) [Example 96, 2-(4-(ethylsulfonyl)phenyl)-N-(4-(1,1,1-trifluoro-2-hydroxy-4,4-dimethylpentan-2-yl)phenyl)acetamide] | ≤ 100 nM |
